Assay results as given in patent US6001331A, “Method of imaging amyloid deposits” (Warner-Lambert Company, priority 1998, dated 1999).
Where two headings read alike, the source gives them in different places.

Experiments:
[1] = biological target: T1, βA(1-40) amyloid aggregates (Homo sapiens, UniProt P05067); test: Competition assay with Thioflavin T (ThT) for binding to β(1-40) amyloid aggregates, fluorescence 96-well plate
T1 construct: lyophilized β(1-40) protein powder (which may be purchased from BACHEM); purchased BACHEM
From the text: Amyloid aggregates containing β(1-40) protein can also be made by methods well known to those skilled in the art. See, for example, Burdick D., Soreghan B., Kwon M., Kosmoski J., Knauer M., Henschen A., Yates J., Cotman C., and Glabe C. Assembly and aggregation properties of synthetic Alzheimer's A4/β amyloid peptide analogs. J. Biol. Chem., 267:546-554 (1992), which is hereby incorporated by reference. Briefly, lyophilized β(1-40) protein powder (which may be purchased from BACHEM) was dissolved at 10 mg/mL in hexafluoro-2-propanol and subsequently diluted to 500 μg/mL in 25 mM sodium phosphate buffer, pH 6 to induce the α-helix to β-sheet transition resulting in aggregate formation.
(§1) The ability of compounds of Formula I to compete with Thioflavin T (ThT) for binding to amyloid aggregates was measured using fluorescence in a 96-well fluorescence plate assay. As a compromise between sensitivity and signal and to facilitate comparisons between different amyloid fibrils, ThT is present at a concentration equal to the Kmapp of the particular amyloid fibril type and fibril concentrations yielding a similar fluorescence intensity are used. Insulin: 0.5 μM ThT, 2 μg per well. β(1-40): 20 μM ThT, 5 μg/well. All solutions are in 25 mM sodium phosphate buffer, pH 6.0, and the assay is performed at room temperature.
(§2) Using a multichannel pipettor, 100 μL of dilutions of the compound to be tested (0.001-30 μM final concentration in 3-fold steps) are placed in the bottom of Corning U-well polystyrene plates (Corning Company, Corning, N.Y.). 50 μL of ThT are then added to each well. The amyloid fibrils are then added to each well in a volume of 100 μL rapidly to mix the well contents. The plates are read within 5 to 30 minutes in a Millipore Cytofluor 2350 96-well fluorescence plate reader using an excitation filter of 440 nm (20 nm bandpass) and an emission filter of 485 nm (20 nm bandpass). ThT dye blanks were used to correct for the minimal fluorescence background which are subtracted from all data.
(§3) Results are expressed as % maximal fluorescence (no competing compound). […]

[2] = biological target: Insulin amyloid aggregates; test: Competition assay with Thioflavin T (ThT) for binding to insulin amyloid aggregates, fluorescence 96-well plate; details: 0.5 μM ThT, 2 μg per well fibrils, 25 mM sodium phosphate pH 6.0, room temperature
Method: Burke M. J. and Rougevie M. A., Cross-β Protein Structures. I. Insulin Fibrils. […] Briefly, lyophilized insulin protein powder dissolved at 10 mg/mL in 50 mM HCl was alternately heated to 95° C. and frozen in dry ice to form amyloid aggregates.
as §1
as §2, with “The plates are read within 5 to 30 minutes in a Millipore Cytofluor 2350 96-well fluorescence plate reader using an excitation filter of 440 nm (20 nm bandpass) and an emission filter of 485 nm (20 nm bandpass).” left out
as §3

[3] = 20 μM ThT, 5 μg/well fibrils, 25 mM sodium phosphate pH 6.0, room temperature, read-out: βA(1-40), IC50

T1 sequence (P05067 672-711 limits assumed): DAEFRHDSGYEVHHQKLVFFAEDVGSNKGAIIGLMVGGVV

Compound `CN(C)c1ccc(N=Nc2sc3ccccc3[n+]2C)cc1` [Example 54, 2-[[4-(Dimethylamino)phenyl]azo]-3-methylbenzothiazolium methylsulfate] has an IC50 [1, 3] of 1300 nM and an IC50 [2] of 60 nM.
In the case of `CN(C)c1ccc(/C=C/c2sc3c4ccccc4ccc3[n+]2C)cc1` [Example 24, (E)-2-[2-(4-Dimethylaminophenyl)vinyl]-3-methylnaphtho[2,1-d]thiazol-3-ium iodide], the IC50 [1, 3] is reported as 210 nM and the IC50 [2] is reported as 41 nM.
`CN(C)c1ccc(/C=C/c2sc3ccccc3[n+]2Cc2ccc(F)cc2)cc1` [Example 25, (E)-2-[2-(4-Dimethylaminophenyl)vinyl]-3-(4-fluorobenzyl)benzothiazol-3-ium bromide] gave an IC50 [1] of 120 nM and an IC50 [2] of 42 nM.
`CN(C)c1ccc(/C=C/c2[s+]c3ccc4ccccc4c3n2C)cc1` [Example 8, (E)-2-[2-(4-Dimethylaminophenyl)vinyl]-1-methylnaphtho[1,2-d]thiazol-3-ium iodide] gave an IC50 [1, 3] of 210 nM and an IC50 [2] of 53 nM.
`CCCCCCC[n+]1c(/C=C/c2ccc(N3CCCC3)cc2)sc2ccccc21` [Example 46, (E)-3-Heptyl-2-[2-[(4-pyrrolidin-1-yl)phenyl]vinyl]benzothiazol-3-ium iodide] was tested, and the IC50 [1, 3] was 160 nM and the IC50 [2] was 42 nM.
With `Nc1ccc(/N=N/c2nc3ccccc3s2)c2ccccc12` [Example 48, 4-(Benzothiazol-2-ylazo)naphthalen-1-ylamine] the IC50 [1, 3] was 120 nM and the IC50 [2] was 110 nM.
With `CN(C)c1ccc(/C=C/c2nc3cc(Cl)ccc3s2)cc1` [Example 1, (E)-{4-[2-(5-Chlorobenzothiazol-2-yl)vinyl]phenyl}dimethylamine] the IC50 [1, 3] was greater than 100000 nM and the IC50 [2] was 100000 nM.
Compound `CCCC[n+]1c(/C=C/c2ccc(N(C)C)cc2)sc2ccccc21` [Example 11, (E)-2-[2-(4-Dimethylaminophenyl)vinyl]-3-butylbenzothiazol-3-ium iodide] has an IC50 [1, 3] of 160 nM and an IC50 [2] of 27 nM.
Work on `CN(C)c1ccc(/C=C/c2sc3ccc(Cl)cc3[n+]2C)cc1` [Example 13, (E)-5-Chloro-2-[2-(4-dimethylaminophenyl)vinyl]-3-methylbenzothiazol-3-ium iodide] yielded an IC50 [1, 3] of 430 nM and an IC50 [2] of 5.2 nM.
Compound `Cc1ccc2sc(/C=C/c3ccc(N(C)C)cc3)[n+](C)c2c1` [Example 16, (E)-2-[2-(4-Dimethylaminophenyl)vinyl]-3,5-dimethylbenzothiazol-3-ium iodide] has an IC50 [1, 3] of 400 nM and an IC50 [2] of 7.5 nM.
`CN(C)c1ccc(/C=C/c2sc3ccccc3[n+]2CCCC(c2ccccc2)c2ccccc2)cc1` [Example 33, (E)-2-[2-(4-Dimethylaminophenyl)vinyl]-3-(4,4-diphenylbutyl)benzothiazol-3-ium iodide] gave an IC50 [1, 3] of 460 nM and an IC50 [2] of 210 nM.
`CN(C)c1ccc(/C=C/c2sc3ccccc3[n+]2Cc2ccc3ccccc3c2)cc1` [Example 27, (E)-2-[2-(4-Dimethylaminophenyl)vinyl]-3-naphthalen-2-ylmethylbenzothiazol-3-ium bromide] gave an IC50 [1] of 120 nM and an IC50 [2] of 13 nM.
`COc1ccc2c(c1)sc(N=Nc1ccc(N(C)C)cc1)[n+]2C` [Example 53, 2-[[4-(Dimethylamino)phenyl]azo]-6-methoxy-3-methylbenzothiazol-3-ium methylsulfate] showed an IC50 [1, 3] of 410 nM and an IC50 [2] of 10 nM.
`CN(C)c1ccc(/C=C/c2sc3ccc(F)cc3[n+]2Cc2ccccc2)cc1` [Example 15, (E)-2-[2-(4-Dimethylaminophenyl)vinyl]-3-benzyl-5-fluorobenzothiazol-3-ium bromide] gave an IC50 [1] of 170 nM and an IC50 [2] of 32 nM.
`CN(C)c1ccc(/C=C/c2sc3ccccc3[n+]2CCCc2ccccc2)cc1` [Example 31, (E)-2-[2-(4-Dimethylaminophenyl)vinyl]-3-(3-phenylpropyl)benzothiazol-3-ium iodide] showed an IC50 [1, 3] of 200 nM and an IC50 [2] of 210 nM.
For `CN(C)c1ccc(/C=C/c2sc3cc4ccccc4cc3[n+]2C)cc1` [Example 23, (E)-2-[2-(4-Dimethylaminophenyl)vinyl]-3-methylnaphtho[2,3-d]thiazol-3-ium iodide], the IC50 [1, 3] was 120 nM and the IC50 [2] was 120 nM.
For `CCn1c(/C=C/c2ccc(N(C)C)cc2)[s+]c2ccc3ccccc3c21` [Example 22, (E)-2-[2-(4-Dimethylaminophenyl)vinyl]-1-ethylnaphtho[1,2-d]thiazol-3-ium toluene-4-sulfonate], the IC50 [1, 3] was 210 nM and the IC50 [2] was 41 nM.
In the case of `C=CC[n+]1c(/C=C/c2ccc(N(C)C)cc2)sc2ccccc21` [Example 10, (E)-2-[2-(4-Dimethylaminophenyl)vinyl]-3-allylbenzothiazol-3-ium bromide], the IC50 [1] is reported as 300 nM and the IC50 [2] is reported as 12 nM.
Compound `CCCCCCC[n+]1c(/C=C/c2ccc(N(CC)CC)cc2)sc2ccccc21` [Example 44, (E)-2-[2-(4-Diethylaminophenyl)vinyl]-3-heptylbenzothiazol-3-ium iodide] has an IC50 [1, 3] of 140 nM and an IC50 [2] of 120 nM.
For `CN(C)c1ccc(/C=C/c2sc3ccccc3[n+]2Cc2cccc(Oc3ccccc3)c2)cc1` [Example 30, (E)-2-[2-(4-Dimethylaminophenyl)vinyl]-3-(3-phenoxybenzyl)benzothiazol-3-ium bromide], the IC50 [1] was 120 nM and the IC50 [2] was 180 nM.
In the case of `CN(C)c1ccc(/C=C/c2sc3ccc4ccccc4c3[n+]2C)c2ccccc12` [Example 42, (E)-2-[2-(4-Dimethylaminonaphthalen-1-yl)vinyl]-1-methylnaphtho[1,2-d]thiazol-1-ium toluene-4-sulfonate], the IC50 [1, 3] is reported as 250 nM and the IC50 [2] is reported as 42 nM.
Compound `CC[n+]1c(/C=C/c2ccc(N(C)C)cc2)sc2ccccc21` [Example 7, (E)-2-[2-(4-Dimethylaminophenyl)vinyl]-3-ethylbenzothiazol-3-ium iodide] has an IC50 [1, 3] of 400 nM and an IC50 [2] of 6 nM.
